According to patent publication US20240246942A1, “KINASE INHIBITORS FOR THE TREATMENT OF NEURODEGENERATIVE DISEASES” (priority 2020, published 2024):

Columns and labels:
Assay in all cases: biochemical
[1] = biological target: T1, panel of 374 wild-type kinases (Homo sapiens, UniProt Q08345); conditions: read-out: % Enzyme Activity (relative to DMSO controls), DDR1
T1 construct: purchased Reaction Biology Corporation

[2] = biological target: T2, panel of 374 wild-type kinases (Homo sapiens, UniProt O14920); conditions: read-out: % Enzyme Activity (relative to DMSO controls), IKKb/IKBKB
T2 construct: purchased Reaction Biology Corporation
T2 sequence (O14920 1-756): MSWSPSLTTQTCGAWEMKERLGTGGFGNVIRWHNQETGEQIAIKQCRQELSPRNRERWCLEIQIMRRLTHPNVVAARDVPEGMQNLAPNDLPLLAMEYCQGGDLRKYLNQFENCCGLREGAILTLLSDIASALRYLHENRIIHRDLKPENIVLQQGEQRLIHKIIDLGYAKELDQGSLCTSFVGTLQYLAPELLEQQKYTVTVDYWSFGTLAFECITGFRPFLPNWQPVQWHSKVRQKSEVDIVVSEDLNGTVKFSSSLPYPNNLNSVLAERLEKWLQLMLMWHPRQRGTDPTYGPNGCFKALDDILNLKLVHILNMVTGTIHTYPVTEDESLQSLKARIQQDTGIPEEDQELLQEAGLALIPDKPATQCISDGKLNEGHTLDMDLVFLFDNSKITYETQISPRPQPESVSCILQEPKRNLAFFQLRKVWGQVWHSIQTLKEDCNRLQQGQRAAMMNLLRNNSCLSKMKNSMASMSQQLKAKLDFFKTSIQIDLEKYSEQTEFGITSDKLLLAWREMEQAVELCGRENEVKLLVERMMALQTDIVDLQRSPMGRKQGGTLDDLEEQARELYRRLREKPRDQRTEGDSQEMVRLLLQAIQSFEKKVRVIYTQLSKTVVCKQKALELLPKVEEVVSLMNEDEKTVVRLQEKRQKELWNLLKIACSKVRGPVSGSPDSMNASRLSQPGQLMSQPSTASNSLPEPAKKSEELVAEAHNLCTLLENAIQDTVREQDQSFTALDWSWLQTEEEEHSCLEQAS

[3] = biological target: T3, panel of 374 wild-type kinases (Homo sapiens, UniProt Q16584); conditions: read-out: % Enzyme Activity (relative to DMSO controls), MLK3/MAP3K11
T3 construct: purchased Reaction Biology Corporation

[4] = biological target: T4, panel of 374 wild-type kinases (Homo sapiens, UniProt Q9BZL6); conditions: read-out: % Enzyme Activity (relative to DMSO controls), kinase PKD2/PRKD2
T4 construct: purchased Reaction Biology Corporation
T4 sequence (Q9BZL6 1-878): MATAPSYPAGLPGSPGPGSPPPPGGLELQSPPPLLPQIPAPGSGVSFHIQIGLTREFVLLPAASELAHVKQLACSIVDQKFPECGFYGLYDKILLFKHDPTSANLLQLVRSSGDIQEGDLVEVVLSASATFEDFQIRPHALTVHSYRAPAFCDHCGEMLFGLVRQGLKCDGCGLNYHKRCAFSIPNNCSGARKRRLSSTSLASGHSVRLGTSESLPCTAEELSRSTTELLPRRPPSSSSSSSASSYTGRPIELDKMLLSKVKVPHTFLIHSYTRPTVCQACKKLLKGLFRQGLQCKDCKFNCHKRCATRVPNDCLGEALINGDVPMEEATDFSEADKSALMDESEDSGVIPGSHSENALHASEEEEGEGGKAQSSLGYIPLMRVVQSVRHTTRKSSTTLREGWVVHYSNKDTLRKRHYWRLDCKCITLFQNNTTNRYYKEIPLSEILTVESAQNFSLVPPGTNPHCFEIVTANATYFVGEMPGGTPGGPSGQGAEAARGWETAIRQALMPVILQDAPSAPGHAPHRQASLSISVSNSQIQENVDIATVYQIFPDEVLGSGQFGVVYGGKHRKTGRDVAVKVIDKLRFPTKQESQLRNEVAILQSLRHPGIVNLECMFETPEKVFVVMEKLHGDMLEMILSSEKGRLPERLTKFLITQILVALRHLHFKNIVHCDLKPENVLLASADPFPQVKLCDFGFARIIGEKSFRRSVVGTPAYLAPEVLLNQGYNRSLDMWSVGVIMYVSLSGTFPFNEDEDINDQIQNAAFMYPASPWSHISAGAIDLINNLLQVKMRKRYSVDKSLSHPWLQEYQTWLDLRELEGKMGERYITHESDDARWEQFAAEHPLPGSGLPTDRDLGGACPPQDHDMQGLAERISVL

[5] = biological target: T5, panel of 374 wild-type kinases (Homo sapiens, UniProt Q9Y6E0); conditions: read-out: % Enzyme Activity (relative to DMSO controls), MST3/STK24
T5 construct: purchased Reaction Biology Corporation

[6] = biological target: T6, panel of 374 wild-type kinases (Homo sapiens, UniProt P07333); conditions: read-out: % Enzyme Activity (relative to DMSO controls), FMS
T6 construct: purchased Reaction Biology Corporation

[7] = biological target: T7, panel of 374 wild-type kinases (Homo sapiens, UniProt P34947); conditions: read-out: % Enzyme Activity (relative to DMSO controls), GRK5
T7 construct: purchased Reaction Biology Corporation

[8] = biological target: T8, panel of 374 wild-type kinases (Homo sapiens, UniProt P42680); conditions: read-out: % Enzyme Activity (relative to DMSO controls), kinase TEC
T8 construct: purchased Reaction Biology Corporation
T8 sequence (P42680 1-631): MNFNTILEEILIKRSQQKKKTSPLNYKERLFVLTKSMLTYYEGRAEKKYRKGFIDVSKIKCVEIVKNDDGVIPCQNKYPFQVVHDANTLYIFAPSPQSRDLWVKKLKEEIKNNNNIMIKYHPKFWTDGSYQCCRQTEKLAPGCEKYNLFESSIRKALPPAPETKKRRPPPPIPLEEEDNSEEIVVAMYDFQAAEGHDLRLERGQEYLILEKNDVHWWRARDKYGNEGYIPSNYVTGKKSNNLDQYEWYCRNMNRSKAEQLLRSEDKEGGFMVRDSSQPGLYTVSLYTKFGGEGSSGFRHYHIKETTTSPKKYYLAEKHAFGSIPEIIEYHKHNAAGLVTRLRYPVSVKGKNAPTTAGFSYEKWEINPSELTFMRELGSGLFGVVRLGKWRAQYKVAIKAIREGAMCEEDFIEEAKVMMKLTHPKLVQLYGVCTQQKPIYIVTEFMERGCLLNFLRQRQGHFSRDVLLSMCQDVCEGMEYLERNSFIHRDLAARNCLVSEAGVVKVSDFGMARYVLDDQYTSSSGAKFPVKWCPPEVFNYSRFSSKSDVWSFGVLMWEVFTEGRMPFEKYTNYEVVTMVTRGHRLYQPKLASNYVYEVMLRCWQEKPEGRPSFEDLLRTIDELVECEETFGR

T5 sequence (Q9Y6E0 whole entry): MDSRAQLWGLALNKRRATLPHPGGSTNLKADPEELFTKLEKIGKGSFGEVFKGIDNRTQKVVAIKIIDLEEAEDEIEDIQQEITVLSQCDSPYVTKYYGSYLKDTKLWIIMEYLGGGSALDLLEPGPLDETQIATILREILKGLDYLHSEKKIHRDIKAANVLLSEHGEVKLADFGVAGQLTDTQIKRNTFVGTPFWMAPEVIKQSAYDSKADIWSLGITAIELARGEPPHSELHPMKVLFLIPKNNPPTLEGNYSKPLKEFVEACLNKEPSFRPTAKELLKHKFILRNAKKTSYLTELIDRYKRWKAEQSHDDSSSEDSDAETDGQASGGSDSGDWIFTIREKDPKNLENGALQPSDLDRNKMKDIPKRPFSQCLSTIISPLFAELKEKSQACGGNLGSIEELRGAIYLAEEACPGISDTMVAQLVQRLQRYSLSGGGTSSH
T7 sequence (P34947 whole entry): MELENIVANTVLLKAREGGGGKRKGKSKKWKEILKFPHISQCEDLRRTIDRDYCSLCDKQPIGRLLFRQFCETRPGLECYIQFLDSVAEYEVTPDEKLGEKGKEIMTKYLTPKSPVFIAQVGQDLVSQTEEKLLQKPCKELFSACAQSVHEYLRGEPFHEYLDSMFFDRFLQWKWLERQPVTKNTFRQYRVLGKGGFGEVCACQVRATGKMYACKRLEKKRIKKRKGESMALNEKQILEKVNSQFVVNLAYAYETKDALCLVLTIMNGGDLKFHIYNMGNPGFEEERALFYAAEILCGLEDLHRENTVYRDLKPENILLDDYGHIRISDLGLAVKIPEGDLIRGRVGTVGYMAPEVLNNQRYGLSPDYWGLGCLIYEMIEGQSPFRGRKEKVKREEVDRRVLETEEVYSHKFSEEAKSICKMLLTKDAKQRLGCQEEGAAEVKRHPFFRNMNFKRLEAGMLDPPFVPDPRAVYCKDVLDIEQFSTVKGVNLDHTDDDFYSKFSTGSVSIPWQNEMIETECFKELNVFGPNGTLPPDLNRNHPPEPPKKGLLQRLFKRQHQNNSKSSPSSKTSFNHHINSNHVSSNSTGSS
T6 sequence (P07333 20-972): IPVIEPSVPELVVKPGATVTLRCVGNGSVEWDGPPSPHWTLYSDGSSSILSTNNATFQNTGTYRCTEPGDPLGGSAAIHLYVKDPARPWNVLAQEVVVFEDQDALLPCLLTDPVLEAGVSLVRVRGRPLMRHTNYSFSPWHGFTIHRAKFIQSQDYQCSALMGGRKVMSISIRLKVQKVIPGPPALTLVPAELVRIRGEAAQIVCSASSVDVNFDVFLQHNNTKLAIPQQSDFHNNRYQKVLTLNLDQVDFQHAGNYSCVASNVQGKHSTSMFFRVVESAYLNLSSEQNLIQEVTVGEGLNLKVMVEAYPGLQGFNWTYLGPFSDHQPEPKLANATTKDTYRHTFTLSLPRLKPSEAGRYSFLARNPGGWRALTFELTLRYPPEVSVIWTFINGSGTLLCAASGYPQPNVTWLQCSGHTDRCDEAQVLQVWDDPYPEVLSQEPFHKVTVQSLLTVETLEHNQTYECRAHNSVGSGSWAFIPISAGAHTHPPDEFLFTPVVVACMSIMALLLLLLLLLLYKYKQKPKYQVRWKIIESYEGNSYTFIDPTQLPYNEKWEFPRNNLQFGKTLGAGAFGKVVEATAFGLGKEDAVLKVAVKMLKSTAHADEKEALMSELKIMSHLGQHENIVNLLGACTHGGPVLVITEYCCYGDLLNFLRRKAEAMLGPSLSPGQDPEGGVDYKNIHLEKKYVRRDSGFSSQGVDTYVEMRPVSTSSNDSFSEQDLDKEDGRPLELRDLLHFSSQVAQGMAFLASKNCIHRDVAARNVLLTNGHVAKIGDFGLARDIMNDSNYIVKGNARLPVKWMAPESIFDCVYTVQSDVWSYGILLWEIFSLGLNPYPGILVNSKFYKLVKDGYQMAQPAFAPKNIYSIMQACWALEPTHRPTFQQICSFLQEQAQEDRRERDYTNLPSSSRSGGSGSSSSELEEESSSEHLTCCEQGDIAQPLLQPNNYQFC
T3 sequence (Q16584 whole entry): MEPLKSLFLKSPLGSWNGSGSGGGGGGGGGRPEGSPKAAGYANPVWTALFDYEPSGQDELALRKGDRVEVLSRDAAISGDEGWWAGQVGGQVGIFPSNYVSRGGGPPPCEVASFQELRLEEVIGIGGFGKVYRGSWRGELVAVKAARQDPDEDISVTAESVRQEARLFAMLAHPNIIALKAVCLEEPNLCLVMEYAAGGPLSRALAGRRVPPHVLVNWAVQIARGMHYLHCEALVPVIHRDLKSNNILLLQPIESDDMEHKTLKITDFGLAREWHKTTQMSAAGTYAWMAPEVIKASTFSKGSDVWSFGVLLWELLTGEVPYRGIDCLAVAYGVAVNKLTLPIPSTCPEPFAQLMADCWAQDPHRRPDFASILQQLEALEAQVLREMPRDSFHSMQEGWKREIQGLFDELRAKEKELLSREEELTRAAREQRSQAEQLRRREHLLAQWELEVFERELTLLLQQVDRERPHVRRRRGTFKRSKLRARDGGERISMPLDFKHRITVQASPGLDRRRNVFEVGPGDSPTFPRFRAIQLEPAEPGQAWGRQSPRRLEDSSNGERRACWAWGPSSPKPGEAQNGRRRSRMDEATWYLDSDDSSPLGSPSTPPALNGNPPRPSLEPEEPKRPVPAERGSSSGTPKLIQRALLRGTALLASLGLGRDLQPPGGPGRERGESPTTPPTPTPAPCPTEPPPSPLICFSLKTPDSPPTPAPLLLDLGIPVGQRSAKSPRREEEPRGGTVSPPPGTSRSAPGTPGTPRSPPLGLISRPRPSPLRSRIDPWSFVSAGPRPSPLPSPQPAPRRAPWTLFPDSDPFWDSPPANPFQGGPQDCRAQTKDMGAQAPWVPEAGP
T1 sequence (Q08345 19-913): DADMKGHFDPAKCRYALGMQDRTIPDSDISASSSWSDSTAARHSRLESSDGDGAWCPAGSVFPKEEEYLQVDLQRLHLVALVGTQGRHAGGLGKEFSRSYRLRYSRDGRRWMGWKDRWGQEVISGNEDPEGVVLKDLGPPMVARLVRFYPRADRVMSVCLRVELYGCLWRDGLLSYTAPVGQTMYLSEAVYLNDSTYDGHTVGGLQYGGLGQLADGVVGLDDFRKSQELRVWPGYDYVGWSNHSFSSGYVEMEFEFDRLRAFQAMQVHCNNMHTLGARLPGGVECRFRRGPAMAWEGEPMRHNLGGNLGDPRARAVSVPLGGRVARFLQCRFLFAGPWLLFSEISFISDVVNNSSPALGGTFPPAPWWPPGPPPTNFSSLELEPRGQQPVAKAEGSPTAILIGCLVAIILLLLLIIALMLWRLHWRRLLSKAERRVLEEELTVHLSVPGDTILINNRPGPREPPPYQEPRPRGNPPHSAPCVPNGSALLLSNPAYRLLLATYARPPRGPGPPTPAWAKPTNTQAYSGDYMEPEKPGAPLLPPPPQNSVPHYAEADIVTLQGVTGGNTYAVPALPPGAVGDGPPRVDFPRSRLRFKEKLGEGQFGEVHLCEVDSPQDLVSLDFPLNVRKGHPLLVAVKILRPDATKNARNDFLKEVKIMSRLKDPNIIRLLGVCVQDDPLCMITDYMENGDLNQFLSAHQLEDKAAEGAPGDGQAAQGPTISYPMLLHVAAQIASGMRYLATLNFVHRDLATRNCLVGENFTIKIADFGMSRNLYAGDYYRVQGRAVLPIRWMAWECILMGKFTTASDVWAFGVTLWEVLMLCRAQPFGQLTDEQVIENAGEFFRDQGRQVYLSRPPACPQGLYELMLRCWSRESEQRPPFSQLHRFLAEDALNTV

With `O=C(Nc1cnn(-c2csc(C(=O)NC3COC3)c2)c1)Nc1ccccc1Cl` [Compound 17, 4-(4-(3-(2-chlorophenyl)ureido)-1H-pyrazol-1-yl)-N-(oxetan-3-yl)thiophene-2-carboxamide] the remaining activity at 5 µM [1] was 98.4%, the remaining activity at 5 µM [2] was 95.6% and the remaining activity at 5 µM [3] was 93.5%. The remaining activity at 5 µM [4] was 94.9%, the remaining activity at 5 µM [5] was 113% and the remaining activity at 5 µM [6] was 105%. It also gave a remaining activity at 5 µM [7] of 98% and a remaining activity at 5 µM [8] of 97.2%.
With `Cc1sc(C(=O)NC2COC2)cc1-n1cc(NC(=O)Nc2c(F)cccc2Cl)cn1` [Compound 27, 4-(4-(3-(2-chloro-6-fluorophenyl)ureido)-1H-pyrazol-1-yl)-5-methyl-N-(oxetan-3-yl)thiophene-2-carboxamide] the remaining activity at 10 µM ([1]; 10 uM) was 83.7%, the remaining activity at 10 µM ([2]; 10 uM) was 86.8% and the remaining activity at 10 µM ([3]; 10 uM) was 90.7%. It also gave a remaining activity at 10 µM ([4]; 10 uM) of 95.7%, a remaining activity at 10 µM ([5]; 10 uM) of 67.3% and a remaining activity at 10 µM ([6]; 10 uM) of 103%. For the same compound, the remaining activity at 10 µM ([7]; 10 uM) was 113% and the remaining activity at 10 µM ([8]; 10 uM) was 91.1%.
In the case of `O=C(Nc1cnn(-c2csc(C(=O)NC3COC3)c2)c1)Nc1c(F)cccc1Cl` [Compound 25, 4-(4-(3-(2-chloro-6-fluorophenyl)ureido)-1H-pyrazol-1-yl)-N-(oxetan-3-yl)thiophene-2-carboxamide], the remaining activity at 5 µM [1] was 88.9%, the remaining activity at 5 µM [2] was 94.7% and the remaining activity at 5 µM [3] was 84.7%. For the same compound, the remaining activity at 5 µM [4] was 102%, the remaining activity at 5 µM [5] was 81.6% and the remaining activity at 5 µM [6] was 98.9%. The remaining activity at 5 µM [7] was 102% and the remaining activity at 5 µM [8] was 97.7%.
